The text below walks through data of ChEMBL document CHEMBL1154969, “LXXLL peptide mimetics as inhibitors of the interaction of vitamin D receptor with coactivators” (Bioorg Med Chem Lett, 2010).

A value given as a limit tells only on which side of the number the result lay.

Assay [1] deals with T1, Vitamin D3 receptor (Homo sapiens, UniProt P11473).
T1 sequence (P11473 whole entry): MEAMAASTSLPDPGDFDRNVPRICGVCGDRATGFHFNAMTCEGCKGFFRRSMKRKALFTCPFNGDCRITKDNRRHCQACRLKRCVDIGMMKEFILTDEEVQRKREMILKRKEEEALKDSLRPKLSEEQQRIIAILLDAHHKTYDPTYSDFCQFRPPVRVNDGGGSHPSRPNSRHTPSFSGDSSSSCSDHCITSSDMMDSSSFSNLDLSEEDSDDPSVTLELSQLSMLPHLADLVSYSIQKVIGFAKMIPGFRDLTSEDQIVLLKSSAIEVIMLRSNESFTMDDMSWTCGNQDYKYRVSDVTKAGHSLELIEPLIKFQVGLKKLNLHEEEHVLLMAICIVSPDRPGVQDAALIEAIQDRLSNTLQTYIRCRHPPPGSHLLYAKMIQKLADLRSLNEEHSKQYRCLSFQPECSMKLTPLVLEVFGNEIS
The assay is described as follows: Displacement of 1,25-dihydroxyvitamin D3 from GST-tagged VDR ligand binding domain assessed as inhibition of interaction with coactivator proteins by TR-FRET assay.

The target in assay [2] is T2, Vitamin D3 receptor (Homo sapiens) (UniProt P11473).
T2 sequence (whole entry): T1 sequence (P11473 whole entry)
The assay is described as follows: Displacement of 1,25-dihydroxyvitamin D3 from GST-tagged VDR ligand binding domain assessed as inhibition of interaction with coactivator proteins at 30 uM by TR-FRET assay. (In general: In TR-FRET formats the signal depends on donor and acceptor labels being close together.)

The target of assay [3] is T1, Vitamin D3 receptor. The assay is described as follows: Antagonist activity at human recombinant VDR LBD expressed in HEK293 cells assessed as inhibition of 3 nM 1,25-(OH)2D3-induced transcriptional activation after 16 to 18 hrs by GAL4-dependent luciferase reporter gene assay. The format is functional, cell-based. A general note: A reporter such as luciferase makes a cellular process visible.

Assay [4] concerns the target T2, Vitamin D3 receptor (Homo sapiens). The assay is described as follows: Antagonist activity at human recombinant VDR LBD expressed in HEK293 cells assessed as inhibition of 3 nM 1,25-(OH)2D3-induced transcriptional activation at 30 uM after 16 to 18 hrs by GAL4-dependent luciferase reporter gene assay. The format is functional, cell-based.
In assay [5] the target is T1, Vitamin D3 receptor. Nature of the assay: (§1) Antagonist activity at human recombinant VDR LBD expressed in HEK293 cells assessed as inhibition of 300 nM 1,25-(OH)2D3-induced transcriptional activation after 16 to 18 hrs by GAL4-dependent luciferase reporter gene assay. In kind it is functional, cell-based.
The target in assay [6] is T2, Vitamin D3 receptor (Homo sapiens). The assay is described as follows: Antagonist activity at human recombinant VDR LBD expressed in HEK293 cells assessed as inhibition of 300 nM 1,25-(OH)2D3-induced transcriptional activation at 30 uM after 16 to 18 hrs by GAL4-dependent luciferase reporter gene assay. In kind it is functional, cell-based.
The target in assay [7] is T3, Estrogen receptor (Homo sapiens, UniProt P03372).
T3 sequence (P03372 whole entry): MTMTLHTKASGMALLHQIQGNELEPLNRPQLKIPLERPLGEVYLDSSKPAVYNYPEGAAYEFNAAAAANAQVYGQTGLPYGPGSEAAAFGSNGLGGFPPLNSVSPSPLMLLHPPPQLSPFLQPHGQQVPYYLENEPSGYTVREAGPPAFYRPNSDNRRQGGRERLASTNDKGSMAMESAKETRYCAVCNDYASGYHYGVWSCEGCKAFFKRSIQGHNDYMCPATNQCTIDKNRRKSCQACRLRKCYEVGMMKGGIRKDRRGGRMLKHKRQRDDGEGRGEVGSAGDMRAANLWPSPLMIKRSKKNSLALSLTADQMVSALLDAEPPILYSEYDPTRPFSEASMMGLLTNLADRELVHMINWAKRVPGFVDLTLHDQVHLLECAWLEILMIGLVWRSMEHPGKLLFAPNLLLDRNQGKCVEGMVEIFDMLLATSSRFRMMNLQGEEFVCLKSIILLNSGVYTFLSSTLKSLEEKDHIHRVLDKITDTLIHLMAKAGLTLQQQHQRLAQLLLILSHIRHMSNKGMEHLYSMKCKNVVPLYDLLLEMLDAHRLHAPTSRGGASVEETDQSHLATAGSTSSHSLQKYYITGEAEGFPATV
The assay is described as follows: Antagonist activity at human recombinant ERalpha LBD expressed in HEK293 cells assessed as inhibition of 0.3 nM estradiol-induced transcriptional activation after 16 to 18 hrs by GAL4-dependent luciferase reporter gene assay. The format is functional, cell-based.

In assay [8] the target is T4, Estrogen receptor beta (Homo sapiens, UniProt Q92731). The assay is described as follows: Antagonist activity at human recombinant ERbeta LBD expressed in HEK293 cells assessed as inhibition of 0.3 nM estradiol-induced transcriptional activation after 16 to 18 hrs by GAL4-dependent luciferase reporter gene assay. The format is functional, cell-based.
Assay [9] concerns the target T4, Estrogen receptor beta. The assay is described as follows: Antagonist activity at human recombinant ERbeta LBD expressed in HEK293 cells assessed as inhibition of 0.3 nM estradiol-induced transcriptional activation at 30 uM after 16 to 18 hrs by GAL4-dependent luciferase reporter gene assay. In kind it is functional, cell-based.
In assay [10] the target is T5, Estrogen receptor (Homo sapiens) (UniProt P03372).
T5 sequence (whole entry): T3 sequence (P03372 whole entry)
Particulars: HEK293, 30 uM.
Description: Antagonist activity at human recombinant ERalpha LBD expressed in HEK293 cells assessed as inhibition of 0.3 nM estradiol-induced transcriptional activation at 30 uM after 16 to 18 hrs by GAL4-dependent luciferase reporter gene assay

The target of assay [11] is T3, Estrogen receptor. Nature of the assay: Inhibition of ER.
For assay [12], the target named is T2, Vitamin D3 receptor (Homo sapiens). Described as §1. In kind it is functional, cell-based.
The target of a further assay is T6, Androgen receptor (Homo sapiens, UniProt P10275).
T6 sequence (P10275 whole entry): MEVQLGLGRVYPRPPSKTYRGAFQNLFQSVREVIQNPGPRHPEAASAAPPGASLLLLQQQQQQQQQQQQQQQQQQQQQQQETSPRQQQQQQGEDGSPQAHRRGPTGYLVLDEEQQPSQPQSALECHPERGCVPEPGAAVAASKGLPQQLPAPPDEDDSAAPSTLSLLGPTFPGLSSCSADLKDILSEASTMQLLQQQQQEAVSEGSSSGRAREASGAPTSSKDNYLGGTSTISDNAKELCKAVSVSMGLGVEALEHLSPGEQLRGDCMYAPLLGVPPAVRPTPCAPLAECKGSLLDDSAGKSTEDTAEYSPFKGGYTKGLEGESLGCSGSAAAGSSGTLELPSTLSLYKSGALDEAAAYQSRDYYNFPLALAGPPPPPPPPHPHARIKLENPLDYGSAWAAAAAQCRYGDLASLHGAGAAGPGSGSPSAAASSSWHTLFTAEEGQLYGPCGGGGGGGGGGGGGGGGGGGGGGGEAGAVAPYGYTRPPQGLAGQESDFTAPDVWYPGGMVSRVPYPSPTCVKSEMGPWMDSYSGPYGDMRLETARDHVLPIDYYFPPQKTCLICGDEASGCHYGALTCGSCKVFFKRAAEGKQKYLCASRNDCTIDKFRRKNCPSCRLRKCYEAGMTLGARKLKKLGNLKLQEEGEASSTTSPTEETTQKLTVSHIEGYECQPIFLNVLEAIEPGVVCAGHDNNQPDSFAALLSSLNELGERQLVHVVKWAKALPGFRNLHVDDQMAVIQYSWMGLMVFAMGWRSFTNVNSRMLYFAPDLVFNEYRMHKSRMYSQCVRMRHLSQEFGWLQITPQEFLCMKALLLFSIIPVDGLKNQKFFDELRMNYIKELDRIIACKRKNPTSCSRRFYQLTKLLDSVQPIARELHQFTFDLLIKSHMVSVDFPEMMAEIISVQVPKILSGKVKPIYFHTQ
The assay is described as follows: Inhibition of AR.

Assay [13] addresses T2, Vitamin D3 receptor (Homo sapiens). The assay is described as follows: Displacement of 1,25-dihydroxyvitamin D3 from GST-tagged VDR ligand binding domain assessed as inhibition of interaction with coactivator proteins at 10 uM by TR-FRET assay.
The target is the same in assay [14]. Nature of the assay: Antagonist activity at human recombinant VDR LBD expressed in HEK293 cells assessed as inhibition of 3 nM 1,25-(OH)2D3-induced transcriptional activation at 10 uM after 16 to 18 hrs by GAL4-dependent luciferase reporter gene assay. In kind it is functional, cell-based.
The target is the same in assay [15]. Nature of the assay: Antagonist activity at human recombinant VDR LBD expressed in HEK293 cells assessed as inhibition of 300 nM 1,25-(OH)2D3-induced transcriptional activation at 10 uM after 16 to 18 hrs by GAL4-dependent luciferase reporter gene assay. The format is functional, cell-based.

T4 sequence (Q92731 whole entry, the tested form may be a part): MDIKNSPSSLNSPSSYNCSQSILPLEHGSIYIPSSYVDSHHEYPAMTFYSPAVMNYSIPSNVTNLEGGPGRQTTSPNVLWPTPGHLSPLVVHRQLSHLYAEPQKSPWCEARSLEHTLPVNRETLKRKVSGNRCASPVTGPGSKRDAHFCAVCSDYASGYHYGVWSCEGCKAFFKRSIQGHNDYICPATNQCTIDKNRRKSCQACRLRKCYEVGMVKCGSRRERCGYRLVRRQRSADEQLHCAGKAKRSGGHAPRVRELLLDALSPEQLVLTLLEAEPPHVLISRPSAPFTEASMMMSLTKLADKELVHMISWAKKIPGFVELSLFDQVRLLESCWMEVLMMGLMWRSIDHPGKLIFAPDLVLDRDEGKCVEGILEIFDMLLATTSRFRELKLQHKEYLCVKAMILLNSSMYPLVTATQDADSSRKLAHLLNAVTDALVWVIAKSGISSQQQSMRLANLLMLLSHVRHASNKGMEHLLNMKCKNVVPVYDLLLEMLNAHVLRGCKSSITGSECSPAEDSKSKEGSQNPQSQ

Consider `CC(C)CCN1Cc2cc(CC(C)C)c(NCCN)cc2N[C@@H](CC(C)C)C1=O`, for which the IC50 – broadly, the midpoint of a concentration-inhibition curve – at Vitamin D3 receptor [1] stood at 28 µM.

On to `CC(C)=Cc1cc2c(cc1N)N[C@@H](CC(C)C)C(=O)N(CCC(C)C)C2`, for which the concentration for half-maximal inhibition (IC50) is 20 µM on Vitamin D3 receptor [1]; 17 µM on Vitamin D3 receptor [3]; 23 µM on Vitamin D3 receptor [5]; more than 30 µM on Estrogen receptor [7]; 22 µM at Estrogen receptor beta [8]. The inhibition – broadly, the change of the read-out against control, counted positive when it falls – in assay [2] turned out to be 76%; in assay [4], 68%; in assay [6], 59%; at Estrogen receptor beta [9] it was 56%; in assay [10], 8%.

Take `CC(C)CNc1cc(CC(C)C)nc(NCC(C)C)n1`: affinity on Estrogen receptor [11] was put at a Ki of 29 µM.

As for `CC(C)Cc1cc(O)c(=O)n(Cc2ccc3ccccc3c2)c1-c1ccnc(Cc2ccccc2)c1`, affinity at Estrogen receptor [11] was put at a Ki of 4.2 µM.

For `CC(C)CCN1Cc2cc(CC(C)C)c(N)cc2N[C@@H](CC(C)C)C1=O`, the IC50 at Vitamin D3 receptor [1] is 30 µM; on Vitamin D3 receptor [3] it was 30 µM; on Vitamin D3 receptor [5] it was 30 µM; on Estrogen receptor [7], more than 30 µM; on Estrogen receptor beta [8] it was more than 30 µM. Also, the inhibition worked out at 48% in assay [2]; 47% in [4]; 8% in [12]; 53% in assay [6]; 18% on Estrogen receptor beta [9].

Turning to `CC(C)CNc1cc(CCc2cccc3ccccc23)nc(NCc2cccc3ccccc23)n1`, at Androgen receptor, affinity was put at a Ki of 1500 nM.

Turning to `CC(C)CCN1Cc2cc(CC(C)C)c(NCCNC(=O)OC(C)(C)C)cc2N[C@@H](CC(C)C)C1=O`, the half-maximal inhibitory concentration (IC50) at Vitamin D3 receptor [1] was found to be 13 µM.

As to `CC(=O)NCCNc1cc2c(cc1CC(C)C)CN(CCC(C)C)C(=O)[C@H](CC(C)C)N2`, the IC50 on Vitamin D3 receptor [1] is more than 30 µM. Also, the inhibition in assay [2] amounted to 43%.

On to `CC(C)CCN1Cc2cc(CC(C)C)c(NC(=N)N)cc2N[C@@H](CC(C)C)C1=O`, for which, at Vitamin D3 receptor [1], the IC50 was more than 30 µM. The inhibition in assay [2] is 46%.

As to `C=C1/C(=C\C=C2/CCC[C@]3(C)[C@@H]([C@H](C)C[C@H]4C[C@@](C)(O)C(=O)N4CCc4ccccc4)CC[C@@H]23)C[C@@H](O)C[C@@H]1O`, the inhibition in assay [13] worked out at 87%; in assay [14], 98%; in [15], 66%. For the same molecule, the values for the IC50 at Vitamin D3 receptor [3] and at Vitamin D3 receptor [5] were 0.22 µM and 3.3 µM, respectively.
